Test results: ChEMBL document CHEMBL1152560, “Substituted 2-arylbenzothiazoles as kinase inhibitors: hit-to-lead optimization” (Bioorg Med Chem, 2009)

Experiments:
[1] = molecular target: Dual specificity tyrosine-phosphorylation-regulated kinase 1B (Homo sapiens) (UniProt Q9Y463); assay: Residual activity of DYRK1B at 1 uM by microplate scintillation counting
[2] = molecular target: Serine/threonine-protein kinase pim-2 (Homo sapiens) (UniProt Q9P1W9); assay: Residual activity of PIM2 at 1 uM by microplate scintillation counting
Sequence of Serine/threonine-protein kinase pim-2 (Homo sapiens) (Q9P1W9 whole entry, looked up): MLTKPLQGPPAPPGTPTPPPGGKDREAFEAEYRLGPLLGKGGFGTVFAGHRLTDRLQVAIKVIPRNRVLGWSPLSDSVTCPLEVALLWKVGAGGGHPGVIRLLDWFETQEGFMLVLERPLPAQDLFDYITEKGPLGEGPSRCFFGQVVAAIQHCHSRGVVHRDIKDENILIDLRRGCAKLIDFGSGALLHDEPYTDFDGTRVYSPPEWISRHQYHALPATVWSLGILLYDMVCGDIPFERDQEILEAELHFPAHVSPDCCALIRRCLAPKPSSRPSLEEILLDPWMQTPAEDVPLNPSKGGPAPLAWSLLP

[3] = molecular target: Protein kinase C theta type (Homo sapiens) (UniProt Q04759); assay: Residual activity of PKCtheta at 1 uM by microplate scintillation counting
Sequence of Protein kinase C theta type (Homo sapiens) (Q04759 whole entry, looked up): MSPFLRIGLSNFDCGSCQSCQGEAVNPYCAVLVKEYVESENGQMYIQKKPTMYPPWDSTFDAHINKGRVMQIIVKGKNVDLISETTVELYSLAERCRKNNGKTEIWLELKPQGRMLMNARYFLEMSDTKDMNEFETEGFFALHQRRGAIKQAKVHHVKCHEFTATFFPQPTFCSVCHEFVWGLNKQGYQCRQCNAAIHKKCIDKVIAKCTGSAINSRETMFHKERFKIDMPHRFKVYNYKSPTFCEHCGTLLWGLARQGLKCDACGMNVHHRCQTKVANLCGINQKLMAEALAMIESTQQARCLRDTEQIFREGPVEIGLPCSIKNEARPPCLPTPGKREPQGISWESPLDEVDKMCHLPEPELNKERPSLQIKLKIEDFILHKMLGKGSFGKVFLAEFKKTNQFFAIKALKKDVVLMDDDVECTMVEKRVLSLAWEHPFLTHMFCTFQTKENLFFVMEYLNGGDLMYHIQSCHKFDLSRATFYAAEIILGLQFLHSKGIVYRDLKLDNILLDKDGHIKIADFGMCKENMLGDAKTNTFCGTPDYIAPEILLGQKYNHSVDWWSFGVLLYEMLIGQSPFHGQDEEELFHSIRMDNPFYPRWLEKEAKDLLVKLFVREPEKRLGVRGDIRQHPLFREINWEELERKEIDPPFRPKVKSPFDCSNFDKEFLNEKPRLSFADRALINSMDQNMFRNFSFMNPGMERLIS

[4] = molecular target: T1, Inhibitor of nuclear factor kappa-B kinase subunit beta (Homo sapiens) (UniProt O14920); assay: Residual activity of IKK-beta at 1 uM by microplate scintillation counting
T1 sequence (whole entry): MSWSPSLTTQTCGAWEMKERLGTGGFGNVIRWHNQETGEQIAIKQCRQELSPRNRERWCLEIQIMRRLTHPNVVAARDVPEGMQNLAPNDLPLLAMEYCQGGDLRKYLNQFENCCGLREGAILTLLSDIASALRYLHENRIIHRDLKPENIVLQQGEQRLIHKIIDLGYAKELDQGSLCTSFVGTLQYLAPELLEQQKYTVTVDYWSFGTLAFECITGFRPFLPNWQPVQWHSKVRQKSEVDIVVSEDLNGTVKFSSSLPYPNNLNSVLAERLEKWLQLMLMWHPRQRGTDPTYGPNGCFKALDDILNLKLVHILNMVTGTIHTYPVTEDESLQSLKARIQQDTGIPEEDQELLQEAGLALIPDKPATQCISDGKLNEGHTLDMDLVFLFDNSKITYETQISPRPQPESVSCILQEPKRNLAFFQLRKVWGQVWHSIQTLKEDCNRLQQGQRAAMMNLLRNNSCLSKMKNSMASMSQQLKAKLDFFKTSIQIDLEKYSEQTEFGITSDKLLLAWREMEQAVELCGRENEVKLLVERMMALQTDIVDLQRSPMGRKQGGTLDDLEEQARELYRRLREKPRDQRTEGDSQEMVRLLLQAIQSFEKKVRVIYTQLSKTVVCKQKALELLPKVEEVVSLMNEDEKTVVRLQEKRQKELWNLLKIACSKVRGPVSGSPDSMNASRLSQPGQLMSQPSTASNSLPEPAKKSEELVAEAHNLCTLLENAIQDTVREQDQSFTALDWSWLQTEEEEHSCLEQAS

[5] = molecular target: Mitogen-activated protein kinase kinase kinase kinase 4 (Homo sapiens) (UniProt O95819); assay: Residual activity of MAP4K4 at 1 uM by microplate scintillation counting
[6] = molecular target: Receptor tyrosine-protein kinase erbB-4 (Homo sapiens) (UniProt Q15303); assay: Residual activity of ERBB4 at 10 uM by microplate scintillation counting
[7] = molecular target: G protein-coupled receptor kinase 4 (Homo sapiens) (UniProt P32298); assay: Residual activity of GRK4 at 10 uM by microplate scintillation counting
Sequence of G protein-coupled receptor kinase 4 (Homo sapiens) (P32298 whole entry, looked up): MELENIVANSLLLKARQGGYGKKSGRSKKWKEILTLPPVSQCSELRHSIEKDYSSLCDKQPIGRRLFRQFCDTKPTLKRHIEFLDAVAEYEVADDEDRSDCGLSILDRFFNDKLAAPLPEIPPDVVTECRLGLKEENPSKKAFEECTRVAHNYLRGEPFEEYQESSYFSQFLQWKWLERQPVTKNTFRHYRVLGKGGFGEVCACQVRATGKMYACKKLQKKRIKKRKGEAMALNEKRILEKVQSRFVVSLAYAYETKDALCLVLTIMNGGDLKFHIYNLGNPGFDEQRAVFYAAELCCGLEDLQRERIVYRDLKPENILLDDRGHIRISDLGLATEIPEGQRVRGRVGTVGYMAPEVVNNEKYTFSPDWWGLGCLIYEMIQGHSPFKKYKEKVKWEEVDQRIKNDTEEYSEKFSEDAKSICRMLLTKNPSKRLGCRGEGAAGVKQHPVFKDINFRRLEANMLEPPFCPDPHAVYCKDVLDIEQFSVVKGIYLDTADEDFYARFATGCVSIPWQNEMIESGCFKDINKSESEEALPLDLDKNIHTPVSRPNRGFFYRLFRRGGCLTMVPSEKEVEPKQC

[8] = molecular target: T2, Myotonin-protein kinase (Homo sapiens) (UniProt Q09013); assay: Residual activity of DMPK at 0.1 uM by microplate scintillation counting
T2 sequence (whole entry): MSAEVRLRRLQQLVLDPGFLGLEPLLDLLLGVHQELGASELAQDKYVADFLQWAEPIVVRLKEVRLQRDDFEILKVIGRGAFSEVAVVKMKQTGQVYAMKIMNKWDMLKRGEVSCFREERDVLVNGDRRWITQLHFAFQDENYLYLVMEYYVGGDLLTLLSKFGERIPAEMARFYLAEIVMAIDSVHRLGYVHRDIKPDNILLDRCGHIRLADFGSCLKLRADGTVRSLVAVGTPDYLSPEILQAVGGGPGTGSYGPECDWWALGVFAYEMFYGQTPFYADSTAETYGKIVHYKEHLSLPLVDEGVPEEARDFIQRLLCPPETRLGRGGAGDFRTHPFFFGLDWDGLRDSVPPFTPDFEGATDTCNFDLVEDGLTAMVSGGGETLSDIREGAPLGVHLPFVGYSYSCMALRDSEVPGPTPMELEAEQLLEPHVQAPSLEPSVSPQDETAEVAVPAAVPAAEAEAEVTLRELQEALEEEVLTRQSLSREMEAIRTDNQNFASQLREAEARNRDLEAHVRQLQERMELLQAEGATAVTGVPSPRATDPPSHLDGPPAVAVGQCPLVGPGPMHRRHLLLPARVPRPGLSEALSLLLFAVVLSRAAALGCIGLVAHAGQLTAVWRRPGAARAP

[9] = molecular target: Tyrosine-protein kinase ABL1 (Homo sapiens) (UniProt P00519); assay: Residual activity of wild type ABL1 at 0.1 uM by microplate scintillation counting
[10] = molecular target: Tyrosine-protein kinase SYK (Homo sapiens) (UniProt P43405); assay: Residual activity of SYK at 0.1 uM by microplate scintillation counting
[11] = molecular target: T3, Dual specificity protein kinase TTK (Homo sapiens) (UniProt P33981); assay: Residual activity of TTK at 0.1 uM by microplate scintillation counting
T3 sequence (whole entry): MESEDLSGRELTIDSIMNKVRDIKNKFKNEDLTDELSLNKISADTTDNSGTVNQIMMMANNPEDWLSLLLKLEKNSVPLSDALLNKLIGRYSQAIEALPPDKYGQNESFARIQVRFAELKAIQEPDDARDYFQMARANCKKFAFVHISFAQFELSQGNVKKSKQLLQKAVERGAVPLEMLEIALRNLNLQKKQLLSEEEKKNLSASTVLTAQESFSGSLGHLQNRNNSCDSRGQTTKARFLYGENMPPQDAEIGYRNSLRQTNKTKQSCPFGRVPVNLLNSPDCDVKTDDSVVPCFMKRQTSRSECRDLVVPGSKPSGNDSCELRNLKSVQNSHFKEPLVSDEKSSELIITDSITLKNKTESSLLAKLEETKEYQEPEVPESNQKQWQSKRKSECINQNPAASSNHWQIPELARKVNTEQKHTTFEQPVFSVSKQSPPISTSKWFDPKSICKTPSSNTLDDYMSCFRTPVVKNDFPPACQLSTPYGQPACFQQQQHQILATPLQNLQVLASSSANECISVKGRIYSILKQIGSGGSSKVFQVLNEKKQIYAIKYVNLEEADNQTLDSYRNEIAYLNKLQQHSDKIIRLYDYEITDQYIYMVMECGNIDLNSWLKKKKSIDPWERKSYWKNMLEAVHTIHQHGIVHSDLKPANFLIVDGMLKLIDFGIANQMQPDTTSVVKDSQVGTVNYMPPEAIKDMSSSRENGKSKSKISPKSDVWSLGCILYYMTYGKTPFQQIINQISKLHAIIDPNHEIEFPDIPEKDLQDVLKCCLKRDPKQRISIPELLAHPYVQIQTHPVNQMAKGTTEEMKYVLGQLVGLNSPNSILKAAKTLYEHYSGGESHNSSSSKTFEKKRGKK

[12] = molecular target: Wee1-like protein kinase (Homo sapiens) (UniProt P30291); assay: Residual activity of WEE1 at 10 uM by microplate scintillation counting
Sequence of Wee1-like protein kinase (Homo sapiens) (P30291 whole entry, looked up): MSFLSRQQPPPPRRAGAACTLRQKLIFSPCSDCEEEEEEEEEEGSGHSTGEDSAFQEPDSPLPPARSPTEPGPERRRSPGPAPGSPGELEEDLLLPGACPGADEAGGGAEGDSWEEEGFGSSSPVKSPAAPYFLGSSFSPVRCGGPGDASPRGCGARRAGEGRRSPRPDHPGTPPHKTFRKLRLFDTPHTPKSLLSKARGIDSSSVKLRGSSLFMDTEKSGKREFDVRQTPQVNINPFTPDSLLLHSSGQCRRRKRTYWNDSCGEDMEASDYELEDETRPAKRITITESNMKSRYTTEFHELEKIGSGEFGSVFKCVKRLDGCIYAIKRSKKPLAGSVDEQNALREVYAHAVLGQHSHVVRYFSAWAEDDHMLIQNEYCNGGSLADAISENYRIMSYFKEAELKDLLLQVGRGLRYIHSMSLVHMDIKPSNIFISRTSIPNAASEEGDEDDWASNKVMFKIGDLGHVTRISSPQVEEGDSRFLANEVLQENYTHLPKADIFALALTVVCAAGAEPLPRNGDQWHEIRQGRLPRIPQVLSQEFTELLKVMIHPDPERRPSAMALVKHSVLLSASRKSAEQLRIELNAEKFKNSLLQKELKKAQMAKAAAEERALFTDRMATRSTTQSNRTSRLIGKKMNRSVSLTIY

[13] = molecular target: Serine/threonine-protein kinase WNK3 (Homo sapiens) (UniProt Q9BYP7); assay: Residual activity of WNK3 at 10 uM by microplate scintillation counting
Sequence of Serine/threonine-protein kinase WNK3 (Homo sapiens) (Q9BYP7 whole entry): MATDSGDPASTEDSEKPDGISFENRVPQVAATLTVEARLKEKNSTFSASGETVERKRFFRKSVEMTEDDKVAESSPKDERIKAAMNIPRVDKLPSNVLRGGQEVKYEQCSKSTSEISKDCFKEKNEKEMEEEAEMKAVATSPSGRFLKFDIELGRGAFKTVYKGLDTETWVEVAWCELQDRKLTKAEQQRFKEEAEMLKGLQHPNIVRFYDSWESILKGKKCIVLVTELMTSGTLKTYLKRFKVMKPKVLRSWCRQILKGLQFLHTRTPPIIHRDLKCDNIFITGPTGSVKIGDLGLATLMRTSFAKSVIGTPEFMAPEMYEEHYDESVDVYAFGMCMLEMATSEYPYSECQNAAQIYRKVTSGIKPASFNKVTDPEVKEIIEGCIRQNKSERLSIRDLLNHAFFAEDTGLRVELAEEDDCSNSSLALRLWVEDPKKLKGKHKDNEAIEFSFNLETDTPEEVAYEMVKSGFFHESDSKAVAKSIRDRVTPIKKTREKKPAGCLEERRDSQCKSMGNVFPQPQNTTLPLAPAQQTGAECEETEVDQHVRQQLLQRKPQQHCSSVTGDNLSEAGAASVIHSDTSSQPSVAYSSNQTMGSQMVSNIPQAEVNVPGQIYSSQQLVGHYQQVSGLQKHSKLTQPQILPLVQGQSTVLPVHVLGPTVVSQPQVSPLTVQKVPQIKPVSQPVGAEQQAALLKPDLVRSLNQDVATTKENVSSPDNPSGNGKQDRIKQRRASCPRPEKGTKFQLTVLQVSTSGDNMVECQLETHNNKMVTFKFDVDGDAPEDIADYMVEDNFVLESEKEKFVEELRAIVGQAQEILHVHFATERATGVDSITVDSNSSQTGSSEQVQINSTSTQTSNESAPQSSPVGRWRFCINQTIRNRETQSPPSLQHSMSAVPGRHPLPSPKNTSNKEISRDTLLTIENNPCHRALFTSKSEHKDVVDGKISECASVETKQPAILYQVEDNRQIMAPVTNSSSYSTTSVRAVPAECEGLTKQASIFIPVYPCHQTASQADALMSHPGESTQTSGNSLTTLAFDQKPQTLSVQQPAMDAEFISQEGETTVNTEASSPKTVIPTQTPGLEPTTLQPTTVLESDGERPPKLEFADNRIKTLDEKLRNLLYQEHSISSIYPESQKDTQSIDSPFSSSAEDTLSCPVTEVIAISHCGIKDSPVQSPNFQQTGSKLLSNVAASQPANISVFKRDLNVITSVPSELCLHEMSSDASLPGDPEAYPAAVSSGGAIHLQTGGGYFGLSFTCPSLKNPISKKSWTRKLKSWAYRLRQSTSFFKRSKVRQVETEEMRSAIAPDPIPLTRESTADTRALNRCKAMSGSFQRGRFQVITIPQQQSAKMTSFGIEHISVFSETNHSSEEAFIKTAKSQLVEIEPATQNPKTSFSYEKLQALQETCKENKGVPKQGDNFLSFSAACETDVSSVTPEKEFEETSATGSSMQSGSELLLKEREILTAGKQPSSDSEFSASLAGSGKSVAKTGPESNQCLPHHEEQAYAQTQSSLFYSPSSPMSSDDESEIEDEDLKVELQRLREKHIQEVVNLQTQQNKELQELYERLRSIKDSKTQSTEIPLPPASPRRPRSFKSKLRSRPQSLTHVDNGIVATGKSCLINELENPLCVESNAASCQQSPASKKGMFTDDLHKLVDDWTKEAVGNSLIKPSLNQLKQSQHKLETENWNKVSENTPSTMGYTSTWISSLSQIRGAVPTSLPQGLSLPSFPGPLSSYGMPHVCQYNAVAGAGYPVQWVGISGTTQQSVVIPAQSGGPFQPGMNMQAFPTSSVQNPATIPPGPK

Sequence of Dual specificity tyrosine-phosphorylation-regulated kinase 1B (Homo sapiens) (Q9Y463 whole entry, looked up): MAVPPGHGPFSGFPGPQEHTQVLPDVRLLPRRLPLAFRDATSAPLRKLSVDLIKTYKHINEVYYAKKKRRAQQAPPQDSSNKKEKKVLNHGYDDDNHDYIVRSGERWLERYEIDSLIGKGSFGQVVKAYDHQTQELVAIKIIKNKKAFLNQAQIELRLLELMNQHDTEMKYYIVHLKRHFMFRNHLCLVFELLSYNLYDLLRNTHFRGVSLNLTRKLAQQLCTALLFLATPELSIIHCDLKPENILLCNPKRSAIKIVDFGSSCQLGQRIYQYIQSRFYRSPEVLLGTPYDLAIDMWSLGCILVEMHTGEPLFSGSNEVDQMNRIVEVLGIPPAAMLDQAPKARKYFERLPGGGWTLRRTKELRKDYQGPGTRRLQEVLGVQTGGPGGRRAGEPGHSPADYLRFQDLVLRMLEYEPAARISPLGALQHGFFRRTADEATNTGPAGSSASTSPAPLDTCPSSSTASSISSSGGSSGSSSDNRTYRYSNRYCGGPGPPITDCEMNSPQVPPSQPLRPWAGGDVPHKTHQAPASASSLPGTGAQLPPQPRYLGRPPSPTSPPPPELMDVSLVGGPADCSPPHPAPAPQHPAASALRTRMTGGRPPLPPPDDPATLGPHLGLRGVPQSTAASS

residual activity [1] [%]	residual activity [2] [%]	residual activity [3] [%]	residual activity [4] [%]	residual activity [5] [%]	residual activity [6] [%]	residual activity [7] [%]	residual activity [8] [%]	residual activity [9] [%]	residual activity [10] [%]	residual activity [11] [%]	residual activity [12] [%]	residual activity [13] [%]	SMILES
98	89	111	98	88	116	159	110	97	103	99	46	21	COc1cc2c(Oc3ccc(-c4nc5ccccc5s4)cc3)ncnc2cc1OCCCN1CCCC1
105	63	113	86	81	118	171	128	94	96	89	2	23	COc1cc2c(Oc3ccc(-c4nc5ccccc5s4)cc3)ncnc2cc1OCCCN1CCN(C)CC1
95	77	100	88	97	54	154	102	100	97	82	2	39	COc1cc2c(Oc3ccc(-c4nc5ccccc5s4)cc3F)ncnc2cc1OCCCN1CCN(C)CC1
